What was measured:
Test in all cases: combination Emax (second highest fraction inhibited in the dose matrix, 72 h); higher = more inhibition; extreme values may be limits of the assay
D-392MG (Glioblastoma) = system: D-392MG (Glioblastoma)
Outline: (§1)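 After 24 hours at 37°C and 5% CO2 in 1536-well plates, cells in DMEM/F12 or RPMI plus 10% FBS received two-drug dose matrices for 72 hours. Viability came from CellTiter-Glo 2.0 luminescence and was scaled as inhibition, anchored at 0 by vehicle wells and at 1 by blank wells. Combination Emax is taken as the second-highest inhibition in the matrix, and Bliss excess as the observed combination effect less EA + EB − EA·EB, with EA and EB the single-agent effects.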

[1] = system: DOK (Oral Cavity Carcinoma)
Outline: as §1

[2] = system: EFM-192A (Breast Carcinoma)
Outline: as §1

[3] = system: HCC-827 (Lung Adenocarcinoma)
Outline: as §1

[4] = system: HCC1143 (Breast Carcinoma)
Outline: as §1

HCC38 (Breast Carcinoma) = system: HCC38 (Breast Carcinoma)
Outline: as §1

[5] = system: HCT-116 (Colorectal Carcinoma)
Outline: as §1

[6] = system: JHH-6 (Hepatocellular Carcinoma)
Outline: as §1

[7] = system: MEG-01 (Chronic Myelogenous Leukemia)
Outline: as §1

[8] = system: MES-SA (Other Solid Carcinomas)
Outline: as §1

[9] = system: NOMO-1 (Acute Myeloid Leukemia)
Outline: as §1

[10] = system: P31-FUJ (Acute Myeloid Leukemia)
Outline: as §1

[11] = system: PA-TU-8902 (Pancreatic Carcinoma)
Outline: as §1

[12] = system: RCC10RGB (Kidney Carcinoma)
Outline: as §1

[13] = system: SK-LMS-1 (Other Solid Carcinomas)
Outline: as §1

[14] = system: SK-UT-1 (Other Solid Carcinomas)
Outline: as §1

[15] = system: SKN-3 (Head and Neck Carcinoma)
Outline: as §1

[16] = system: SNG-M (Endometrial Carcinoma)
Outline: as §1

[17] = system: SW948 (Colorectal Carcinoma)
Outline: as §1

[18] = system: WSU-DLCL2 (B-Cell Non-Hodgkin's Lymphoma)
Outline: as §1

Compound | combination Emax (D-392MG (Glioblastoma)) | combination Emax [1] | combination Emax [2] | combination Emax [3] | combination Emax [4] | combination Emax (HCC38 (Breast Carcinoma)) | combination Emax [5] | combination Emax [6] | combination Emax [7] | combination Emax [8] | combination Emax [9] | combination Emax [10] | combination Emax [11] | combination Emax [12] | combination Emax [13] | combination Emax [14] | combination Emax [15] | combination Emax [16] | combination Emax [17] | combination Emax [18]
COc1cccc(OCCCN)c1-c1cc(Nc2cnc(C#N)cn2)n[nH]1 [Prexasertib] + C=CCn1c(=O)c2cnc(Nc3ccc(N4CCN(C)CC4)cc3)nc2n1-c1cccc(C(C)(C)O)n1 [AZD1775] (first compound max 1 µM, partner max 1 µM) | 0.66 | 0.685 | 0.416 | 0.603 | 0.925 | 0.799 | 0.921 | 0.599 | 0.939 | 0.892 | 1 | 1 | 0.605 | 0.6 | 0.711 | 0.967 | 0.771 | 0.985 | 0.896 | 1
COc1cccc(OCCCN)c1-c1cc(Nc2cnc(C#N)cn2)n[nH]1 [Prexasertib] + Cc1cc2ncnn2cc1Nc1ncc2c(n1)n(C1CCOCC1)c(=O)n2C [AZD7648] (first compound max 1 µM, 7x7, partner max 10 µM) | 0.519 | 0.499 | 0.284 | 0.566 | 0.883 | 0.74 | 0.565 | 0.389 | 0.926 | 0.912 | 1 | 1 | 0.598 | 0.442 | 0.637 | 0.957 | 0.606 | 0.954 | 0.812 | 1
Cc1c2c(nn1C)CSCc1cc(n(C)n1)CSc1cc(c3ccccc3c1)OCCCc1c(C(=O)O)n(C)c3c-2c(Cl)ccc13 [AZD5991] + CC1(C)CCC(CN2CCN(c3ccc(C(=O)NS(=O)(=O)c4ccc(NCC5CCOCC5)c([N+](=O)[O-])c4)c(Oc4cnc5[nH]ccc5c4)c3)CC2)=C(c2ccc(Cl)cc2)C1 [Venetoclax] (first compound max 1 µM, 7x7, partner max 1 µM) | 0.791 | 0.758 | 0.873 | 0.182 | 0.252 | 0.463 | 0.163 | 0.0668 | 0.837 | 0.323 | 0.981 | 0.998 | 0.139 | 0.221 | 0.115 | 0.138 | 0.15 | 0.209 | 0.236 | 1
COc1cccc(OCCCN)c1-c1cc(Nc2cnc(C#N)cn2)n[nH]1 [Prexasertib] + C[C@@H]1COCCN1C2=NC(=NC(=C2)C3(CC3)[S@](=N)(=O)C)C4=C5C=CNC5=NC=C4 [AZD6738] (first compound max 1 µM, 7x7, partner max 10 µM) | 0.524 | 0.43 | 0.188 | 0.549 | 0.938 | 0.723 | 0.747 | 0.367 | 0.929 | 0.757 | 1 | 1 | 0.601 | 0.45 | 0.637 | 0.926 | 0.637 | 1 | 0.821 | 1
COc1cccc(OCCCN)c1-c1cc(Nc2cnc(C#N)cn2)n[nH]1 [Prexasertib] + CN(C)CCCOc1ccc(-c2ccc3ncc4c(c3c2)n(C2CCOCC2)c(=O)n4C)cn1 [AZD0156] (first compound max 1 µM, 7x7, partner max 1 µM) | 0.567 | 0.348 | 0.233 | 0.552 | 0.912 | 0.711 | 0.536 | 0.342 | 0.921 | 0.905 | 1 | 0.998 | 0.586 | 0.484 | 0.612 | 0.936 | 0.616 | 0.99 | 0.804 | 1
CN(CCO)CC[C@H](CSc1ccccc1)Nc1ccc(S(=O)(=O)NC(=O)c2ccc(N3CCC([C@@H](O)c4ccccc4-c4ccc(Cl)cc4)CC3)cc2)cc1S(=O)(=O)C(F)(F)F [AZD4320] + Cn1cnc2c(F)c(Nc3ccc(Br)cc3Cl)c(C(=O)NOCCO)cc21 [Selumetinib] (first compound max 1 µM, 7x7, partner max 3 µM) | 0.483 | 0.562 | 0.284 | 0.298 | 0.361 | 0.907 | 0.709 | 0.35 |  | 0.246 | 1 | 0.901 | 0.7 | 0.576 | 0.924 | 0.345 | 0.355 | 0.526 | 0.79 | 0.959
